According to patent publication US11254663B2 (BRISTOL-MYERS SQUIBB COMPANY, priority 2019, dated 2022):
pEC50: −log10 of the molar value.

Biological target: FXR (Homo sapiens (Human), UniProt Q96RI1)
Experiment: FXR EC50 (FXR agonist potency reported with each Example)
Format: cell-based

Sequence of FXR (Q96RI1 262-486): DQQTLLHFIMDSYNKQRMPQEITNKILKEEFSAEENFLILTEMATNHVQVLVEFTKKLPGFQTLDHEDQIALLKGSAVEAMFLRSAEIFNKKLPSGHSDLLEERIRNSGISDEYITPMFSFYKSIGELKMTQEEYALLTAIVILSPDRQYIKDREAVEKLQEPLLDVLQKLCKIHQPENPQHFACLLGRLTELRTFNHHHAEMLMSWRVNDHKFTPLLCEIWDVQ

| pEC50 | SMILES |
| --- | --- |
| 7.13 | O=C(N(CC12CCC(c3nc(C4CC4)no3)(CC1)OC2)c1cccc(-c2noc(C3CC3)n2)c1)C12CC(F)(C1)C2 [Example 203] |
| 6.43 | O=C(N(CC12CCC(c3nc(C4CC4)no3)(CC1)OC2)c1cccc(-c2noc(C(F)F)n2)c1)C12CC(F)(C1)C2 [Example 204, N-((1-(3-cyclopropyl-1,2,4-oxadiazol-5-yl)-2-oxabicyclo[2.2.2]octan-4-yl)methyl)-N-(3-(5-(difluoromethyl)-1,2,4-oxadiazol-3-yl)phenyl)-3-fluorobicyclo[1.1.1]pentane-1-carboxamide] |
| 6.66 | Cn1nc(C2CC2)cc1C12CCC(CN(C(=O)C34CC(F)(C3)C4)c3cncc(-c4nc(C5CC5)no4)c3)(CC1)CC2 [Example 205, N-(5-(3-cyclopropyl-1,2,4-oxadiazol-5-yl)pyridin-3-yl)-N-((4-(3-cyclopropyl-1-methyl-1H-pyrazol-5-yl)bicyclo[2.2.2]octan-1-yl)methyl)-3-fluorobicyclo[1.1.1]pentane-1-carboxamide] |
| 7.31 | CC(C)(C)c1nc(C23CCC(CN(C(=O)C45CC(F)(C4)C5)c4cncc(-c5nc(C6CC6)no5)c4)(CC2)CC3)no1 [Example 206, N-((4-(5-(tert-butyl)-1,2,4-oxadiazol-3-yl)bicyclo[2.2.2]octan-1-yl)methyl)-N-(5-(3-cyclopropyl-1,2,4-oxadiazol-5-yl)pyridin-3-yl)-3-fluorobicyclo[1.1.1]pentane-1-carboxamide] |
| 6.24 | CC(C)(C)c1noc(C23CCC(CN(C(=O)C45CC(F)(C4)C5)c4cncc(-c5nc(C6CC6)no5)c4)(CC2)CC3)n1 [Example 207, N-((4-(3-(tert-butyl)-1,2,4-oxadiazol-5-yl)bicyclo[2.2.2]octan-1-yl)methyl)-N-(5-(3-cyclopropyl-1,2,4-oxadiazol-5-yl)pyridin-3-yl)-3-fluorobicyclo[1.1.1]pentane-1-carboxamide] |
| 6.21 | CC(C)(C)c1noc(C23CCC(CN(C(=O)C45CC(F)(C4)C5)c4cccc(-c5cnn(S(=O)(=O)C6CC6)c5)c4)(CC2)OC3)n1 [Example 208, N-((4-(3-(tert-butyl)-1,2,4-oxadiazol-5-yl)-2-oxabicyclo[2.2.2]octan-1-yl)methyl)-N-(3-(1-(cyclopropylsulfonyl)-1H-pyrazol-4-yl)phenyl)-3-fluorobicyclo[1.1.1]pentane-1-carboxamide] |
| 6.82 | O=C(N(CC12CCC(c3noc(C4(C(F)(F)F)CC4)n3)(CC1)CC2)c1cccc(-c2cn[nH]c2)c1)C12CC(F)(C1)C2 [Example 209, N-(3-(1H-pyrazol-4-yl)phenyl)-3-fluoro-N-((4-(5-(1-(trifluoromethyl)cyclopropyl)-1,2,4-oxadiazol-3-yl)bicyclo[2.2.2]octan-1-yl)methyl)bicyclo[1.1.1]pentane-1-carboxamide] |
| 7.32 | CC(C)(C)c1nc(C23CCC(CN(C(=O)C45CC(F)(C4)C5)c4cc(-c5nc(C6CC6)no5)ccn4)(CC2)CC3)no1 [Example 210, N-((4-(5-(tert-butyl)-1,2,4-oxadiazol-3-yl)bicyclo[2.2.2]octan-1-yl)methyl)-N-(4-(3-cyclopropyl-1,2,4-oxadiazol-5-yl)pyridin-2-yl)-3-fluorobicyclo[1.1.1]pentane-1-carboxamide] |
| 7.77 | CC(C)(C)c1nc(C23CCC(CN(C(=O)C45CC(F)(C4)C5)c4cc(-c5cn[nH]c5)ccn4)(CC2)CC3)no1 [Example 211, N-(4-(1H-pyrazol-4-yl)pyridin-2-yl)-N-((4-(5-(tert-butyl)-1,2,4-oxadiazol-3-yl)bicyclo[2.2.2]octan-1-yl)methyl)-3-fluorobicyclo[1.1.1]pentane-1-carboxamide] |
| 7.96 | CC(C)(C)c1nc(C23CCC(CN(C(=O)C45CC(F)(C4)C5)c4cc(-c5cnn(C(F)F)c5)ccn4)(CC2)CC3)no1 [Example 212, N-((4-(5-(tert-butyl)-1,2,4-oxadiazol-3-yl)bicyclo[2.2.2]octan-1-yl)methyl)-N-(4-(1-(difluoromethyl)-1H-pyrazol-4-yl)pyridin-2-yl)-3-fluorobicyclo[1.1.1]pentane-1-carboxamide] |
| 6.70 | Cn1nc(C(C)(C)C)cc1-c1cccc(N(CC23CCC(c4noc(C(C)(C)C)n4)(CC2)CC3)C(=O)C23CC(F)(C2)C3)c1 [Example 213, N-((4-(5-(tert-butyl)-1,2,4-oxadiazol-3-yl)bicyclo[2.2.2]octan-1-yl)methyl)-N-(3-(3-(tert-butyl)-1-methyl-1H-pyrazol-5-yl)phenyl)-3-fluorobicyclo[1.1.1]pentane-1-carboxamide] |
| 7.05 | Cn1nc(-c2cccc(N(CC34CCC(c5noc(C(C)(C)C)n5)(CC3)CC4)C(=O)C34CC(F)(C3)C4)c2)cc1C(C)(C)C [Example 214, N-((4-(5-(tert-butyl)-1,2,4-oxadiazol-3-yl)bicyclo[2.2.2]octan-1-yl)methyl)-N-(3-(5-(tert-butyl)-1-methyl-1H-pyrazol-3-yl)phenyl)-3-fluorobicyclo[1.1.1]pentane-1-carboxamide] |
| 7.01 | O=C(N(CC12CCC(c3nc(C4CC4)no3)(CC1)CC2)c1cccc(-n2cc(C3CC3)nn2)c1)C12CC(F)(C1)C2 [Example 219, N-((4-(3-cyclopropyl-1,2,4-oxadiazol-5-yl)bicyclo[2.2.2]octan-1-yl)methyl)-N-(3-(4-cyclopropyl-1H-1,2,3-triazol-1-yl)phenyl)-3-fluorobicyclo[1.1.1]pentane-1-carboxamide] |
| 6.26 | COc1cccc(-c2cccc(N(CC34CCC(c5nc(C)no5)(CC3)CC4)C(=O)C3CC(F)(F)C3)c2)c1 [Example 220, 3,3-Difluoro-N-(3′-methoxy-[1,1′-biphenyl]-3-yl)-N-((4-(3-methyl-1,2,4-oxadiazol-5-yl)bicyclo[2.2.2]octan-1-yl)methyl)cyclobutane-1-carboxamide] |
| 6.55 | COc1cc(-c2cccc(N(CC34CCC(c5ccc(C(C)(C)C#N)cc5)(CC3)OC4)C(=O)C34CC(F)(C3)C4)c2)ccn1 [Example 222, N-((1-(4-(2-cyanopropan-2-yl)phenyl)-2-oxabicyclo[2.2.2]octan-4-yl)methyl)-3-fluoro-N-(3-(2-methoxypyridin-4-yl)phenyl)bicyclo[1.1.1]pentane-1-carboxamide] |
| 6.62 | CCOc1ccnc(-c2cccc(N(CC34CCC(c5nc(C6CC6)no5)(CC3)CC4)C(=O)C34CC(F)(C3)C4)c2)c1 [Example 225, N-((4-(3-cyclopropyl-1,2,4-oxadiazol-5-yl)bicyclo[2.2.2]octan-1-yl)methyl)-N-(3-(4-ethoxypyridin-2-yl)phenyl)-3-fluorobicyclo[1.1.1]pentane-1-carboxamide] |
| 6.66 | CCOc1cc(-c2cccc(N(CC34CCC(c5nc(C6CC6)no5)(CC3)CC4)C(=O)C34CC(F)(C3)C4)c2)ccn1 [Example 226, N-((4-(3-cyclopropyl-1,2,4-oxadiazol-5-yl)bicyclo[2.2.2]octan-1-yl)methyl)-N-(3-(2-ethoxypyridin-4-yl)phenyl)-3-fluorobicyclo[1.1.1]pentane-1-carboxamide] |
| 6.42 | COc1cc(-c2cccc(N(CC34CCC(c5nc(C6CCOCC6)no5)(CC3)CC4)C(=O)C34CC(F)(C3)C4)c2)ccn1 [Example 227, 3-Fluoro-N-(3-(2-methoxypyridin-4-yl)phenyl)-N-((4-(3-(tetrahydro-2H-pyran-4-yl)-1,2,4-oxadiazol-5-yl)bicyclo[2.2.2]octan-1-yl)methyl)bicyclo[1.1.1]pentane-1-carboxamide] |
| 6.35 | COc1cc(-c2cccc(N(CC34CCC(c5nc(C)no5)(CC3)CC4)C(=O)C34CC(F)(C3)C4)c2)ccn1 [Example 228, 3-fluoro-N-(3-(2-methoxypyridin-4-yl)phenyl)-N-((4-(3-methyl-1,2,4-oxadiazol-5-yl)bicyclo[2.2.2]octan-1-yl)methyl)bicyclo[1.1.1]pentane-1-carboxamide] |

| SMILES | pEC50 |
| --- | --- |
| O=C(C1CC(C(F)F)C1)N(CC12CCC(c3nc(C4CC4)no3)(CC1)OC2)c1cccc(-c2cc(C3CC3)on2)c1 (stereo not shown) [Example 201, N-((1-(3-cyclopropyl-1,2,4-oxadiazol-5-yl)-2-oxabicyclo[2.2.2]octan-4-yl)methyl)-N-(3-(5-cyclopropylisoxazol-3-yl)phenyl)-3-(difluoromethyl)cyclobutane-1-carboxamide] | 6.42 |
| O=C(C1CCC(F)(F)C1)N(CC12CCC(c3nc(C4CC4)no3)(CC1)OC2)c1cccc(-c2cc(C3CC3)on2)c1 (stereo not shown) [Example 202, N-((1-(3-cyclopropyl-1,2,4-oxadiazol-5-yl)-2-oxabicyclo[2.2.2]octan-4-yl)methyl)-N-(3-(5-cyclopropylisoxazol-3-yl)phenyl)-3,3-difluorocyclopentane-1-carboxamide] | 6.52 |
| COc1cccc(-c2cccc(N(CC34CCC(c5nc(C)no5)(CC3)CC4)C(=O)C34CC(F)(C3)C4)c2)c1 [Example 221, 3-fluoro-N-(3′-methoxy-[1,1′-biphenyl]-3-yl)-N-((4-(3-methyl-1,2,4-oxadiazol-5-yl)bicyclo[2.2.2]octan-1-yl)methyl)bicyclo[1.1.1]pentane-1-carboxamide] | 6.30 |
| COc1cc(-c2cccc(N(CC34CCC(c5ccc(C(C)(C)C#N)cc5)(CC3)OC4)C(=O)C3CCC3)c2)ccn1 [Example 223, N-((1-(4-(2-cyanopropan-2-yl)phenyl)-2-oxabicyclo[2.2.2]octan-4-yl)methyl)-N-(3-(2-methoxypyridin-4-yl)phenyl)cyclobutanecarboxamide] | 6.50 |
| COc1cc(-c2cccc(N(CC34CCC(c5ccc(C(C)(C)C#N)cc5)(CC3)OC4)C(=O)C3CCCC3)c2)ccn1 [Example 224, N-((1-(4-(2-cyanopropan-2-yl)phenyl)-2-oxabicyclo[2.2.2]octan-4-yl)methyl)-N-(3-(2-methoxypyridin-4-yl)phenyl)cyclopentanecarboxamide] | 6.05 |
| COc1cc(-c2cccc(N(CC34CCC(c5nc(C6CC6)no5)(CC3)CC4)C(=O)C34CC(F)(C3)C4)c2)ccn1 [Example 229, N-((4-(3-cyclopropyl-1,2,4-oxadiazol-5-yl)bicyclo[2.2.2]octan-1-yl)methyl)-3-fluoro-N-(3-(2-methoxypyridin-4-yl)phenyl)bicyclo[1.1.1]pentane-1-carboxamide] | 6.81 |
